Test results taken from patent US20040077611A1, “Triple therapy of angiotensin converting enzyme inhibitor epoxy-steroidal aldosterone antagonist and diuretic or digoxin for treatment of cardiovascular disease” (G.D. Searle & Co., priority 1999, published 2004).
In brackets after ≈: the same amount, converted by molar mass. Read-outs that look alike come from different tables or passages of the source.

Tests used:
[1] = Dissolution rate of unformulated solid state forms of eplerenone; assay type: physicochemical; settings: temperatures below the enantiotropic transition temperature
[2] = Physical stability of solid state forms of eplerenone; assay type: physicochemical; settings: temperatures below the enantiotropic transition temperature
[3] = test system: patients with severe HF (NYHA Class IV); settings: cited from earlier work
[4] = Solubility of eplerenone in crystallization solvents; assay type: physicochemical; settings: organic crystallization solvent or mixture of solvents, room temperature
[5] = test system: patients with stable NYHA Class II-IV heart failure; settings: human, in vivo
[6] = test system: patients with stable NYHA Class II-IV heart failure; experiment: Clinical trial of eplerenone added to ACE inhibitor and loop diuretic in heart failure (Biological Evaluation I); settings: for plasma renin activity (PRA): 12 weeks of treatment, FIG. 28
humans = experiment: Effects of eplerenone pharmaceutical compositions in humans after oral administration; assay type: in vivo
[7] = test system: patients alive at Day 3 with Killip class >I; settings: patients randomized to lisinopril; ACE-I treatment stopped at 42 days; cited from earlier work
[8] = test system: patients with clinical evidence of HF at any time after an AMI; settings: cited from earlier work; for risk reduction in all cause mortality: compared to placebo (p=0.002)
[9] = test system: patients with impaired ejection fraction post AMI; settings: cited from earlier work
[10] = test system: myocardial fibrosis in animal models; settings: cited from earlier work
[11] = test system: patients with severe HF (NYHA Class III or IV); settings: cited from earlier work
[12] = test system: patients afflicted with congestive heart failure; settings: cited from earlier work
[13] = test system: patients with LV dysfunction 2 to 6 days following MI; settings: cited from earlier work
[14] = humans, over about 12 to 24 hours after ingestion of the composition

Compound: COC(=O)[C@@H]1CC2=CC(=O)CC[C@]2(C)[C@@]23O[C@@H]2C[C@@]2(C)[C@@H](CC[C@@]24CCC(=O)O4)[C@H]13 [Form H]
- dissolution rate relative to unformulated Form L [1]: approximately 30%

Compound: COC(=O)[C@@H]1CC2=CC(=O)CC[C@]2(C)[C@@]23O[C@@H]2C[C@@]2(C)[C@@H](CC[C@@]24CCC(=O)O4)[C@H]13 [Form L]
- physical stability relative to Form H [2]: greater physical stability

Compound: CCOC(=O)[C@H](CCc1ccccc1)N[C@@H](C)C(=O)N1CCC[C@H]1C(=O)O [enalapril]
- reduction of mortality at one year ([3]; enalapril plus diuretics compared to placebo plus diuretics): 31%
- mortality ([3]; group with baseline aldosterone plasma levels above the median): reduced
- mortality ([3]; group with baseline aldosterone plasma levels below the median): no difference from placebo

Compound: COC(=O)[C@@H]1CC2=CC(=O)CC[C@]2(C)[C@@]23O[C@@H]2C[C@@]2(C)[C@@H](CC[C@@]24CCC(=O)O4)[C@H]13 [eplerenone, Pregn-4-ene-7,21-dicarboxylic acid, 9,11-epoxy-17-hydroxy-3-oxo-, γ-lactone, methyl ester, (7^α, 11^α, 17^α)-]
- solubility [4]: 5 to 200 mg/mL (≈ 12.1 to 483 mM)
- testosterone levels [5]: lack of effect
- plasma renin activity (PRA) [6]: significantly elevated
- reduction in BNP ([6]; eplerenone at 25 mg and 100 mg, all patients, FIG. 29): highly significant
- urinary aldosterone excretion, increase from baseline ([6]; eplerenone doses of 50 and 100 mg, 12 week visit): Greater increases
- average decrease in diasystolic blood pressure (humans; [14]): at least 5%
- average increase in blood serum aldosterone concentrations (humans; [14]): at least 50%
- average increase in blood serum renin concentration (humans; [14]): at least 10%
- urinary log10 (sodium/potassium) ratio (humans; [14]): increase
- efficacy of the required daily dosage, once-a-day relative to twice-a-day administration (humans; in vivo): does not appear to materially differ

Compound: NCCCC[C@H](N[C@@H](CCc1ccccc1)C(=O)O)C(=O)N1CCC[C@H]1C(=O)O [lisinopril]
- first-year mortality [7]: 22%

Compound: CCOC(=O)[C@H](CCc1ccccc1)N[C@@H](C)C(=O)N1[C@H](C(=O)O)C[C@@H]2CCC[C@@H]21 [ramipril]
- risk reduction in all cause mortality ([8]; AIRE): 27%
- reduction in the risk of developing severe resistant HF ([8]; AIRE, compared to placebo (p=0.017)): 23%
- risk reduction in all cause mortality ([8]; AIREX long-term (three year) follow-up): 36%
- ventricular dilatation and systolic dysfunction [9]: prevented ventricular dilatation and further decline of systolic dysfunction

Compound: CC(=O)S[C@@H]1CC2=CC(=O)CC[C@]2(C)[C@H]2CC[C@@]3(C)[C@@H](CC[C@@]34CCC(=O)O4)[C@H]12 [spironolactone]
- myocardial fibrosis ([10]; Klug et al): prevents myocardial fibrosis
- fibrosis ([10]; irrespective of the development of left ventricular hypertrophy and the presence of hypertension, Brilla et al): prevent fibrosis
- reduction in mortality compared to placebo ([11]; as restated): > 30%
- median increase in serum potassium concentration ([11]; compared to patients treated with placebo): statistically but not clinically significant
- risk reduction for all cause mortality ([11]; spironolactone 25 mg daily added to standard therapy vs standard therapy plus placebo (p<0.001)): 30%
- lower frequency of hospitalization for worsening HF ([11]; vs placebo patients): 35%
- plasma renin activity (PRA) [6]: significantly elevated
- testosterone levels ([6]; males): significant increase
- clinical outcome ([12]; co-therapy of spironolactone and enalapril): Clinical improvements
- patients in whom co-therapy was highly effective ([12]; spironolactone coadministered with an ACE inhibitor): 13 of 16
- ventricular dilatation and systolic dysfunction [9]: prevented ventricular dilatation and further decline of systolic dysfunction

Compound: CCOC(=O)[C@H](CCc1ccccc1)N[C@@H](C)C(=O)N1[C@H](C(=O)O)C[C@H]2CCCC[C@@H]21 [trandolapril]
- relative reduction in the risk of death ([13]; compared to placebo (p=0.001)): 18%
- reduction in the risk of progression to severe HF ([13]; compared to placebo (p=0.003)): 29%
